Data: patent US20260042735A1, “BENZYLTRYPTAMINE COMPOUNDS” (priority 2021, published 2026)
Like-named read-outs stand apart in the source and are kept apart here.

Experiments:
human 5-HT2A receptor [1] = target: T1, human 5-HT2A receptor (Homo sapiens (Human), UniProt P28223); experiment: 5HT2A competitive binding assay (Eurofins Cerep)
Description: The compound is approximately equipotent to psilocybin based on data from the http:/PDSP.unc.edu/databases/pdsp.php.

5HT2B receptor [2] = target: T2, 5HT2B receptor (Homo sapiens, UniProt P41595); experiment: 5HT2B competitive binding assay
T2 sequence (P41595 whole entry): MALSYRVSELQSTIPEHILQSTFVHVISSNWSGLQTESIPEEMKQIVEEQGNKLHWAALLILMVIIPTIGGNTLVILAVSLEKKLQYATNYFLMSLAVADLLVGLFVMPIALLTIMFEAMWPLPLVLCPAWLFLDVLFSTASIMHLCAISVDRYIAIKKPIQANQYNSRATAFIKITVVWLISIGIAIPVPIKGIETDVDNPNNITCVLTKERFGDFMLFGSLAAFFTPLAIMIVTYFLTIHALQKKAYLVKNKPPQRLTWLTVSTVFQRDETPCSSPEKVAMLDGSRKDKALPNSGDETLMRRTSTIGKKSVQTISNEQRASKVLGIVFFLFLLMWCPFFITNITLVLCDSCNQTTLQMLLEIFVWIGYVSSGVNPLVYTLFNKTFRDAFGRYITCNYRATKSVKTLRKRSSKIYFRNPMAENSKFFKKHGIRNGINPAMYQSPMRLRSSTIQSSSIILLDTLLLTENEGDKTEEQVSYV

5HT2B receptor [3] = target: T2, 5HT2B receptor; experiment: 5HT2B functional antagonist assay; format: cell-based
Protocol: Quantification of myo-Inositol-1-phosphate was performed using HTRF.

human recombinant 5-HT1A = human recombinant 5-HT1A (Homo sapiens (Human), UniProt P08908); experiment: 5HT1A competitive binding assay (Eurofins Cerep); settings: for Ki: [3H]8-OHDPAT 0.5 nM, HEK-293, Cheng Prusoff, read-out: 5HT1A binding constant Ki
5HT2B receptor [4] = target: T2, 5HT2B receptor; experiment: 5HT2B (IP1) functional agonist assay; format: cell-based
5HT2C receptor [5] = target: T3, 5HT2C receptor (Homo sapiens, UniProt P28335); experiment: biochemical
T3 sequence (P28335 33-458 limits assumed): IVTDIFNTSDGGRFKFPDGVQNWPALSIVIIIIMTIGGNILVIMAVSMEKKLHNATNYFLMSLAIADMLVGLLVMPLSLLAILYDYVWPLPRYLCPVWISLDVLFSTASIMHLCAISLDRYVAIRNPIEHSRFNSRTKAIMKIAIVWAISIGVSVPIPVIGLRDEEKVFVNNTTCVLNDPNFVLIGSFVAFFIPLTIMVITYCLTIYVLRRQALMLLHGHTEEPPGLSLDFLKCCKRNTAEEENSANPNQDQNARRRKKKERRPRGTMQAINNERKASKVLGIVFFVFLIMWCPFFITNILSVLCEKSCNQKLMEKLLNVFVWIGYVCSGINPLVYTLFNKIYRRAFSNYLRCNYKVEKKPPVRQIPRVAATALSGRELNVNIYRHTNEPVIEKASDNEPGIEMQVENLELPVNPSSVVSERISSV

cancer patients = settings: high-dose, 6-month follow-up; cited from earlier work
[6] = system: patients with alcohol dependence; settings: 10 patients with alcohol dependence; cited from earlier work
[7] = system: participants with tobacco addiction; settings: cited from earlier work
5HT2C receptor [8] = target: T3, 5HT2C receptor; settings: phosphoinositol hydrolysis; read-out: Agonist potency at human 5-HT2C receptor; cited from earlier work
patients = settings: cited from earlier work
human 5-HT2A receptor [9] = target: T1, human 5-HT2A receptor; experiment: 5HT2A functional assay (agonism); format: cell-based
[10] = Pharmacokinetics after i.v. administration in rats; format: in vivo; settings: plasma, iv; rat, i.v. 1.0 mg/kg
Protocol: (§1) The compound of Example 1 was dispersed in water containing phosphate buffered saline at a rate of 1 mg/ml and then acidified to pH 4 to create a solution. The solution was administered to each of 3 rats (ca. 300 g each) at a rate of 1.0 mg/kg (ca. dose 0.33 ml, […]) via a catheter placed in the jugular vein. Animals were observed over a period of 12 h with counting the cumulative number head-twitch actions over each 10 min up to 2 hours and then for 10 min each at 3, 3.5 and 4 hours. Blood samples (0.25 ml) were collected via the catheter using 1 ml syringes into 0.8 ml K2EDTA tubes at 0.0833, 0.25, 0.5, 0.75, 1, 2, 4, 6 hours after the dose and placed on wet ice until processing. Psychological saline (0.25 ml) was reinjected after each blood draw via the catheter to the animal to flush the catheter and replenish blood volumes. The blood samples collected were centrifuged (3200 g, 5 min, 4 C) within 5 min of collection and the plasma recovered and placed in a cryovial and frozen in liquid nitrogen and stored at −80 C thereafter until analysis. A bioanalytical method was developed to quantify the compound in plasma using a Sciex 6500 Q-trap MSMS equipped with a standard LC system and after calibration with the compound of the example.

rats = experiment: Head-twitch counting during rat i.v. PK experiment; format: in vivo; settings: i.v. 1.0 mg/kg, duration of PK experiment
Protocol: as §1

Adrenergic Alpha 1A = Adrenergic Alpha 1A (Homo sapiens (Human), UniProt P35348); experiment: Functional GCPR assay, inhibition, Adrenergic Alpha 1A; format: cell-based; settings: read-out: IC50 (A1A) inhibition in functional GCPR assay
Adrenergic Alpha 1A, sequence (P35348 whole entry): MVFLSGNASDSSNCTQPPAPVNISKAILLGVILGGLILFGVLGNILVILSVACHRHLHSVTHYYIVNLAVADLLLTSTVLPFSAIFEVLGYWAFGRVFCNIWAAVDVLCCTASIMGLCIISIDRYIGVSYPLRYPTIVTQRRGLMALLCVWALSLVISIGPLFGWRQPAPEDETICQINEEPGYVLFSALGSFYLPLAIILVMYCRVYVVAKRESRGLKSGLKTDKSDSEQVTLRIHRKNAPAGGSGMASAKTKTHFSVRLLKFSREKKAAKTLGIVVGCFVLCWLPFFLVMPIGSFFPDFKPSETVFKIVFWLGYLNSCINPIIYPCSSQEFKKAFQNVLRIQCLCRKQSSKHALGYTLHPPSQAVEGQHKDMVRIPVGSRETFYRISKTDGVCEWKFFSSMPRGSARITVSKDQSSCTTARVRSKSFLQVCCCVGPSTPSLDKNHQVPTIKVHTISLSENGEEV

Adrenergic Alpha 2A = Adrenergic Alpha 2A (Homo sapiens (Human), UniProt P08913); experiment: Functional GCPR assay, inhibition, Adrenergic Alpha 2A; format: cell-based; settings: read-out: IC50 (A2A) inhibition in functional GCPR assay
Adrenergic Alpha 2A, sequence (P08913 whole entry): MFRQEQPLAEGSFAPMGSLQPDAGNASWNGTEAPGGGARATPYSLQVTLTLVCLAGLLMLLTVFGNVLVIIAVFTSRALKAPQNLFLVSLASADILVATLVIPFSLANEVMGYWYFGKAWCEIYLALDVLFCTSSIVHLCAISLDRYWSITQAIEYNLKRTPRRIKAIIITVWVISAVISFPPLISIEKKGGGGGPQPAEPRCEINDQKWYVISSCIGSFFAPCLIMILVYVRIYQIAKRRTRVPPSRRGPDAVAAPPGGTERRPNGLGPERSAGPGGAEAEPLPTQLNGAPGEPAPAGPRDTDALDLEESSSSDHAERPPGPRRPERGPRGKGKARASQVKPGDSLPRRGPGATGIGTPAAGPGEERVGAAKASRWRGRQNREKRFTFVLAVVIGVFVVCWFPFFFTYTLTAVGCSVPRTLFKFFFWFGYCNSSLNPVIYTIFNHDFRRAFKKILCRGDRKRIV

5HT2C receptor [11] = settings: binding Ki ratio
[12] = Table 1, all units nM, read-out: 2A Binding
[13] = Table 1, all units nM, read-out: 2B Binding
[14] = Table 1, all units nM, read-out: 2B IC50 Functional Antagonist
[15] = 125I-DOI 0.2 nM, CHO cells, Cheng Prusoff, read-out: 5HT2B binding constant Ki
[16] = 2A Binding, Table 1, all units nM
[17] = Table 1, all units nM, read-out: 2B EC50 Functional Agonist

## CN(CCc1c[nH]c2ccccc12)Cc1cccc(CO)c1 [Example 24, N-(2-(1H-indol-3-yl)ethyl)-N-(3-hydroxymethylbenzyl)methan-1-amine]
Human 5-HT2A receptor [1]; [12]
  Ki: 59 nM
5HT2B receptor [2]; [13]
  Ki: 50 nM
5HT2B receptor [3]; [14]
  IC50: 6990 nM

## COc1cccc(CN(C)CCc2c[nH]c3ccccc23)c1 [Example 10]
Human recombinant 5-HT1A
  Ki: 0.51 µM
Human 5-HT2A receptor [1]; 125I-DOI 0.1 nM, HEK-293, Cheng Prusoff, read-out: 5HT2A binding constant Ki
  Ki: 14 nM
5HT2B receptor [2]; [15]
  Ki: 380 nM
5HT2B receptor [4]; Example 10, read-out: 5HT2B functional agonist mode IC50
  IC50: 1.05 µM
5HT2B receptor [4]; up to 30 uM
  5HT2B functional agonist mode efficacy: < 20%
5HT2C receptor [5]
  Ki: 0.042 µM

## CN(CCc1c[nH]c2ccccc12)Cc1cccc(Br)c1 [Example 23, N-(3-bromobenzyl)-2-(1H-indol-3-yl)-N-methylethan-1-amine]
Human 5-HT2A receptor [1]; [12]
  Ki: 11 nM
5HT2B receptor [2]; [13]
  Ki: 22 nM
5HT2B receptor [3]; [14]
  IC50: 1620 nM

## COc1ccc2[nH]cc(CCN(C)Cc3cc(OC)c(OC)c(OC)c3)c2c1 [C, reference compound]
Human 5-HT2A receptor [1]; [16]
  Ki: 340 nM
5HT2B receptor [2]
  Ki: 76 nM
5HT2B receptor [3]
  IC50: 2050 nM

## COc1cccc(CN(C)CCc2c[nH]c3ccccc23)c1OC [Example 15, N-(2,3-dimethoxybenzyl)-2-(H-indol-3-yl)-N-methylethan-1-amine]
Human 5-HT2A receptor [1]; [16]
  Ki: 274 nM
5HT2B receptor [2]
  Ki: 48 nM
5HT2B receptor [3]
  IC50: 1370 nM

## CN(CCc1c[nH]c2ccccc12)Cc1cccc(O)c1 [Example 22, 3-(((2-(1H-indol-3-yl)ethyl)(methyl)amino)methyl)phenol]
Human 5-HT2A receptor [1]; [16]
  Ki: 35 nM
5HT2B receptor [2]
  Ki: 31 nM
5HT2B receptor [3]
  IC50: > 10000 nM

## CCN(CCc1c[nH]c2ccc(OC)cc12)Cc1ccccc1OC [Example 11, N-ethyl-2-(5-methoxy-1H-indol-3-yl)-N-(2-methoxybenzyl)ethan-1-amine]
Human 5-HT2A receptor [1]; [16]
  Ki: 170 nM
5HT2B receptor [2]
  Ki: 173 nM
5HT2B receptor [4]
  EC50: > 10000 nM

## CN(C)CCc1c[nH]c2cccc(OP(=O)(O)O)c12 [psilocybin]
Cancer patients
  Participants continuing to show clinically significant decreases in depressed mood and anxiety: about 80%
[6]
  Alcohol use post administration: significant decrease in alcohol use
[7]; 2.5 years after the target quit date
  Participants abstinent: 75%
[7]; 6-month follow up
  Participants with biologically verified 7-day point-prevalence abstinence: eighty
[7]; 12-month follow-up
  Participants biologically verified as abstinent: 67%

## CCCCn1cc(CCN(C)C)c2c(O)cccc21 [Compound 6]
5HT2C receptor [8]
  EC50: ~0.6 µM

## COc1ccc(CN(C)CCc2c[nH]c3ccccc23)cc1 [Example 14, 2-(1H-indol-3-yl)-N-(4-methoxybenzyl)-N-methylethan-1-amine]
Human 5-HT2A receptor [1]; [12]
  Ki: 280 nM
5HT2B receptor [2]; [13]
  Ki: 69 nM
5HT2B receptor [3]; [14]
  IC50: 1670 nM

## COc1ccc2[nH]cc(CCN(C)Cc3c(OC)cccc3OC)c2c1 [A, reference compound]
Human 5-HT2A receptor [1]; [16]
  Ki: 1600 nM
5HT2B receptor [2]
  Ki: 402 nM
5HT2B receptor [3]
  IC50: > 10000 nM

## C=CCN(CCc1c[nH]c2ccccc12)Cc1cccc(OC)c1 [Example 29, N-(2-(1H-indol-3-yl)ethyl)-N-(3-methoxybenzyl)prop-2-en-1-amine]
Human 5-HT2A receptor [1]; [12]
  Ki: 28 nM
5HT2B receptor [2]; [13]
  Ki: 21 nM

## C#Cc1cccc(CN(C)CCc2c[nH]c3ccccc23)c1 [Example 25, 2-(1H-indol-3-yl)-N-(3-ethynylbenzyl)-N-methylethan-1-amine]
Human 5-HT2A receptor [1]; [12]
  Ki: 6 nM
5HT2B receptor [2]; [13]
  Ki: 13 nM
5HT2B receptor [4]; [17]
  EC50: 163 nM
5HT2B receptor [3]; [14]
  IC50: 2560 nM

## C=C(C)CN(CCc1c[nH]c2ccccc12)Cc1cccc(OC)c1 [Example 20, N-(2-(1H-indol-3-yl)ethyl)-N-(3-methoxybenzyl)2-methylprop-2-en-1-amine]
Human 5-HT2A receptor [1]; [12]
  Ki: 135 nM

## C[C@H]1CNCCc2ccc(Cl)cc21 [Locaserin]
patients
  Risk of cardiac valvulopathy: no increased risk of cardiac valvulopathy

## COc1ccc2[nH]cc(CCN(C)Cc3ccccc3OC)c2c1 [Example 1]
Human recombinant 5-HT1A
  Ki: 0.54 µM
Human recombinant 5-HT1A; binding Ki ratio
  Selectivity for 5HT2A over 5HT1A (Ki): about 5 fold
Human 5-HT2A receptor [9]; HEK-293
  EC50: 0.52 µM
Human 5-HT2A receptor [9]; at the highest concentrations, read-out: 5HT2A maximum efficacy
  Emax: 80%
5HT2B receptor [2]; [15]
  Ki: 180 nM
5HT2B receptor [4]; CHO cells, HTRF, serotonin 1 uM control
  5HT2B functional agonist EC50 (IP1): could not be determined for lack of activity
5HT2B receptor [3]; CHO cells, background serotonin 10 uM, read-out: 5HT2B functional antagonist IC50
  IC50: < 10000 nM
5HT2B receptor [3]; relative to serotonin
  5HT2B functional mode (antagonist): full antagonist
[10]
  half-life: 1.1 h
rats
  Head twitch activity: no significant head twitch activity
Adrenergic Alpha 1A
  IC50: 1.8 µM
Adrenergic Alpha 2A
  IC50: 1.7 µM
5HT2C receptor [11]
  Selectivity for 5HT2A over 5HT2C (Ki): about 6 fold
5HT2C receptor [5]
  Ki: 0.68 µM

## COc1ccccc1CN(C)CCc1c[nH]c2ccccc12 [Example 28, 2-(1H-indol-3-yl)-N-(2-methoxybenzyl)-N-methylethan-1-amine]
Human 5-HT2A receptor [1]; [16]
  Ki: 130 nM
5HT2B receptor [2]
  Ki: 253 nM

## COc1ccc2[nH]cc(CCN(Cc3ccccc3OC)C(C)C)c2c1 [Example 12, N-(2-(5-methoxy-1H-indol-3-yl)ethyl)-N-(2-methoxybenzyl)propan-2-amine]
Human 5-HT2A receptor [1]; [12]
  Ki: 277 nM
5HT2B receptor [2]; [13]
  Ki: 341 nM
5HT2B receptor [4]; [17]
  EC50: > 10000 nM

## COc1cc(OC)c(CN(CCc2c[nH]c3ccc(OC)cc23)C(C)C)c(OC)c1 [B, reference compound]
Human 5-HT2A receptor [1]; [12]
  Ki: 4600 nM
5HT2B receptor [2]; [13]
  Ki: 4930 nM
5HT2B receptor [3]; [14]
  IC50: > 10000 nM

## COc1cccc(CN(C)CCc2c[nH]c3ccc(OC)cc23)c1 [Example 27, 2-(5-methoxy-1H-indol-3-yl)-N-(3-methoxybenzyl)-N-methylethan-1-amine]
Human 5-HT2A receptor [1]; [16]
  Ki: 16 nM
5HT2B receptor [2]
  Ki: 16 nM

## COc1cccc(CN(CCc2c[nH]c3ccccc23)C(C)C)c1OC [Example 16, N-(2-(1H-indol-3-yl)ethyl)-N-(2,3-dimethoxybenzyl)prop-2-an-1-amine]
Human 5-HT2A receptor [1]; [12]
  Ki: 2630 nM
5HT2B receptor [2]; [13]
  Ki: 313 nM
5HT2B receptor [4]; [17]
  EC50: > 10000 nM
5HT2B receptor [3]; [14]
  IC50: > 10000 nM

## C=CCN(CCc1c[nH]c2ccc(OC)cc12)Cc1ccccc1OC [Example 13, N-(2-(5-methoxy-1H-indol-3-yl)ethyl)-N-(2-methoxybenzyl)prop-2-en-1-amine]
Human 5-HT2A receptor [1]; [12]
  Ki: 76 nM
5HT2B receptor [2]; [13]
  Ki: 73 nM
5HT2B receptor [4]; [17]
  EC50: > 10000 nM
5HT2B receptor [3]; [14]
  IC50: > 10000 nM

## CCc1cccc(CN(C)CCc2c[nH]c3ccccc23)c1 [Example 21, 2-(1H-indol-3-yl)-N-(3-ethylbenzyl)-N-methylethan-1-amine]
Human 5-HT2A receptor [1]; [12]
  Ki: 5 nM
5HT2B receptor [3]; [14]
  IC50: 687 nM

## CN(CCc1c[nH]c2ccccc12)Cc1cccc2c1OCO2 [Example 26]
Human 5-HT2A receptor [1]; [12]
  Ki: 73 nM
5HT2B receptor [2]; [13]
  Ki: 60 nM
5HT2B receptor [3]; [14]
  IC50: 1090 nM

## CN(CCc1c[nH]c2ccccc12)Cc1ccccc1 [Example 17, N-(2-(1H-indol-3-yl)ethyl)-N-(benzyl)methan-1-amine]
Human 5-HT2A receptor [1]; [12]
  Ki: 60 nM
5HT2B receptor [2]; [13]
  Ki: 45 nM
5HT2B receptor [3]; [14]
  IC50: > 10000 nM

## C/C=C\CN(CCc1c[nH]c2ccccc12)Cc1cccc(OC)c1 [Example 19, (Z)—N-(2-(1H-indol-3-yl)ethyl)-N-(3-methoxybenzyl)but-2-en-1-amine]
Human 5-HT2A receptor [1]; [12]
  Ki: 31 nM
5HT2B receptor [2]; [13]
  Ki: 44 nM
5HT2B receptor [4]; [17]
  EC50: > 10000 nM
5HT2B receptor [3]; [14]
  IC50: 3380 nM
